Test results from PubChem BioAssay (NCI).
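A five-concentration, 48-hour dose response in 96-well plates underlies each endpoint, interpolated linearly between surrounding concentrations. GI50: concentration for 50% inhibition of growth. TGI is the concentration that stops growth completely.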

Key:
Test in all cases: inhibition of tumour cell growth, NCI panel, 48 h
786-0 renal = tested on: 786-0 renal
A498 renal = tested on: A498 renal
A549 NSCLC = tested on: A549 NSCLC
ACHN renal = tested on: ACHN renal
BT-549 breast = tested on: BT-549 breast
CAKI-1 renal = tested on: CAKI-1 renal
CCRF-CEM leukemia = tested on: CCRF-CEM leukemia
COLO 205 colon = tested on: COLO 205 colon
DU-145 prostate = tested on: DU-145 prostate
HCC-2998 colon = tested on: HCC-2998 colon
HCT-116 colon = tested on: HCT-116 colon
HCT-15 colon = tested on: HCT-15 colon
HL-60(TB) leukemia = tested on: HL-60(TB) leukemia
HOP-62 NSCLC = tested on: HOP-62 NSCLC
HOP-92 NSCLC = tested on: HOP-92 NSCLC
HS 578T breast = tested on: HS 578T breast
HT29 colon = tested on: HT29 colon
IGROV1 ovarian = tested on: IGROV1 ovarian
K-562 leukemia = tested on: K-562 leukemia
KM12 colon = tested on: KM12 colon
LOX IMVI melanoma = tested on: LOX IMVI melanoma
M14 melanoma = tested on: M14 melanoma
MALME-3M melanoma = tested on: MALME-3M melanoma
MCF7 breast = tested on: MCF7 breast
MDA-MB-231 breast = tested on: MDA-MB-231 breast
MDA-MB-435 = tested on: MDA-MB-435
MOLT-4 leukemia = tested on: MOLT-4 leukemia
NCI-H226 lung = tested on: NCI-H226 lung
NCI-H23 lung = tested on: NCI-H23 lung
NCI-H460 lung = tested on: NCI-H460 lung
NCI-H522 lung = tested on: NCI-H522 lung
NCI/ADR-RES ovarian = tested on: NCI/ADR-RES ovarian
OVCAR-3 ovarian = tested on: OVCAR-3 ovarian
OVCAR-4 ovarian = tested on: OVCAR-4 ovarian
OVCAR-5 ovarian = tested on: OVCAR-5 ovarian
OVCAR-8 ovarian = tested on: OVCAR-8 ovarian
PC-3 prostate = tested on: PC-3 prostate
RPMI-8226 leukemia = tested on: RPMI-8226 leukemia
RXF 393 renal = tested on: RXF 393 renal
SF-268 CNS = tested on: SF-268 CNS
SF-295 CNS = tested on: SF-295 CNS
SF-539 CNS = tested on: SF-539 CNS
SK-MEL-2 melanoma = tested on: SK-MEL-2 melanoma
SK-MEL-28 melanoma = tested on: SK-MEL-28 melanoma
SK-MEL-5 melanoma = tested on: SK-MEL-5 melanoma
SK-OV-3 ovarian = tested on: SK-OV-3 ovarian
SN12C renal = tested on: SN12C renal
SNB-19 CNS = tested on: SNB-19 CNS
SNB-75 CNS = tested on: SNB-75 CNS
SW-620 colon = tested on: SW-620 colon
T-47D breast = tested on: T-47D breast
TK-10 renal = tested on: TK-10 renal
U251 CNS = tested on: U251 CNS
UACC-257 melanoma = tested on: UACC-257 melanoma
UACC-62 melanoma = tested on: UACC-62 melanoma
UO-31 renal = tested on: UO-31 renal

COc1ccc2c(c1)C(=O)/C(=C/c1ccc([N+](=O)[O-])s1)O2
GI50 (786-0 renal): 1470 nM | TGI (786-0 renal): 6730 nM | GI50 (A498 renal): 2050 nM | TGI (A498 renal): 6510 nM | GI50 (A549 NSCLC): 1060 nM | TGI (A549 NSCLC): 4070 nM | GI50 (ACHN renal): 263 nM | TGI (ACHN renal): 722 nM | GI50 (BT-549 breast): 246 nM | TGI (BT-549 breast): 617 nM | GI50 (CAKI-1 renal): 2190 nM | TGI (CAKI-1 renal): > 100000 nM | GI50 (CCRF-CEM leukemia): 308 nM | GI50 (COLO 205 colon): 490 nM | TGI (COLO 205 colon): 1680 nM | GI50 (DU-145 prostate): 1790 nM | TGI (DU-145 prostate): > 100000 nM | GI50 (HCC-2998 colon): 514 nM | TGI (HCC-2998 colon): 2050 nM | GI50 (HCT-116 colon): 204 nM | TGI (HCT-116 colon): 401 nM | GI50 (HCT-15 colon): 219 nM | TGI (HCT-15 colon): 697 nM | GI50 (HL-60(TB) leukemia): 713 nM | TGI (HL-60(TB) leukemia): > 26100 nM | GI50 (HOP-62 NSCLC): 1070 nM | TGI (HOP-62 NSCLC): 3470 nM | GI50 (HOP-92 NSCLC): 230 nM | TGI (HOP-92 NSCLC): 1230 nM | GI50 (HS 578T breast): 269 nM | GI50 (HT29 colon): 502 nM | TGI (HT29 colon): 2670 nM | GI50 (IGROV1 ovarian): 349 nM | TGI (IGROV1 ovarian): 1200 nM | GI50 (K-562 leukemia): 291 nM | TGI (K-562 leukemia): 12200 nM | GI50 (KM12 colon): 235 nM | TGI (KM12 colon): 510 nM | GI50 (LOX IMVI melanoma): 256 nM | TGI (LOX IMVI melanoma): 637 nM | GI50 (M14 melanoma): 358 nM | TGI (M14 melanoma): 1310 nM | GI50 (MALME-3M melanoma): 451 nM | TGI (MALME-3M melanoma): 1760 nM | GI50 (MCF7 breast): 344 nM | TGI (MCF7 breast): > 100000 nM | GI50 (MDA-MB-231 breast): 203 nM | TGI (MDA-MB-231 breast): 474 nM | GI50 (MDA-MB-435): 314 nM | TGI (MDA-MB-435): 1760 nM | GI50 (MOLT-4 leukemia): 867 nM | TGI (MOLT-4 leukemia): > 33700 nM | GI50 (NCI-H226 lung): 1910 nM | TGI (NCI-H226 lung): 4810 nM | GI50 (NCI-H23 lung): 709 nM | TGI (NCI-H23 lung): 3530 nM | GI50 (NCI-H460 lung): 411 nM | TGI (NCI-H460 lung): 1640 nM | GI50 (NCI-H522 lung): 195 nM | TGI (NCI-H522 lung): 395 nM | GI50 (NCI/ADR-RES ovarian): 873 nM | TGI (NCI/ADR-RES ovarian): > 100000 nM | GI50 (OVCAR-3 ovarian): 252 nM | TGI (OVCAR-3 ovarian): 548 nM | GI50 (OVCAR-4 ovarian): 340 nM | TGI (OVCAR-4 ovarian): 1140 nM | GI50 (OVCAR-5 ovarian): 1600 nM | TGI (OVCAR-5 ovarian): 3340 nM | GI50 (OVCAR-8 ovarian): 362 nM | TGI (OVCAR-8 ovarian): > 100000 nM | GI50 (PC-3 prostate): 283 nM | GI50 (RPMI-8226 leukemia): 260 nM | TGI (RPMI-8226 leukemia): 843 nM | GI50 (RXF 393 renal): 284 nM | TGI (RXF 393 renal): 926 nM | GI50 (SF-268 CNS): 268 nM | TGI (SF-268 CNS): 660 nM | GI50 (SF-295 CNS): 2950 nM | TGI (SF-295 CNS): 9610 nM | GI50 (SF-539 CNS): 352 nM | TGI (SF-539 CNS): 1410 nM | GI50 (SK-MEL-2 melanoma): 325 nM | TGI (SK-MEL-2 melanoma): 875 nM | GI50 (SK-MEL-28 melanoma): 248 nM | TGI (SK-MEL-28 melanoma): 689 nM | GI50 (SK-MEL-5 melanoma): 326 nM | TGI (SK-MEL-5 melanoma): 1040 nM | GI50 (SK-OV-3 ovarian): 2680 nM | TGI (SK-OV-3 ovarian): 7770 nM | GI50 (SN12C renal): 483 nM | TGI (SN12C renal): 2320 nM | GI50 (SNB-19 CNS): 522 nM | TGI (SNB-19 CNS): 2000 nM | GI50 (SNB-75 CNS): 627 nM | TGI (SNB-75 CNS): 2470 nM | GI50 (SW-620 colon): 211 nM | TGI (SW-620 colon): 507 nM | GI50 (T-47D breast): 248 nM | TGI (T-47D breast): 728 nM | GI50 (TK-10 renal): 767 nM | GI50 (U251 CNS): 287 nM | TGI (U251 CNS): 943 nM | GI50 (UACC-257 melanoma): 819 nM | TGI (UACC-257 melanoma): 3110 nM | GI50 (UACC-62 melanoma): 311 nM | TGI (UACC-62 melanoma): 1160 nM | GI50 (UO-31 renal): 232 nM | TGI (UO-31 renal): 614 nM
